Test [1] has as its system caspase-1. Put plainly: Caspase-1 ELISA in human corneal endothelial grafts exposed to TNF-α and IFN-γ. In kind it is cell-based. To be noted: Ac-YVAD-cmk 30 ng/ml, TNF-α 100 ng/ml + IFN-γ 100 ng/ml, 48 hours; vs exposed and control non-exposed grafts, p<0.0001. The method, then: (§1) Endothelial grafts were isolated from corneal tissue grafts stored in Optisol GS (Bausch & Lomb; Rochester, New York, USA) and transferred to 24-well plates in DMEM/F12 medium (Gibco, Invitrogen Thermo Fisher, Carlsbad, CA, USA) supplemented with 5% fetal bovine serum (Gibco, Invitrogen Thermo Fisher, Carlsbad, CA, USA) and incubated at 37° C. for 48 hours to stabilize the cells following hypothermic storage. Medium was replaced and endothelial grafts were treated with TNF-α (100 ng/ml, R&D Systems, Minneapolis, MN, USA) and IFN-γ (100 ng/ml, Systems, Minneapolis, MN, USA)^34 and were incubated at 37° C. for 48 hours. Caspase-1 inhibitor, Ac-YVAD-cmk (30 ng/ml, InvivoGen, San Diego, CA, USA) was used to inhibit the inflammasome in CEC.
(§2) To study the expression of inflammasome signaling proteins in endothelial grafts, cells were treated with TNF-α and IFN-γ for 48 hours. Treated endothelial grafts were placed on […] of lysis buffer with protease inhibitor cocktail (Sigma) and Caspase-1 and […] levels were measure by SimpleStep ELISA™ kit (Abcam; Cambridge, UK) according to the manufacturer's instructions. Caspase-1 and IL-1β protein levels were determined by measuring the fluorescence intensity using a microplate reader (SpectraMax iD3, Molecular Device, San Jose, CA, USA) with excitation and emission wavelengths set at 485 and 535 nm, respectively. […]
On the technique in general: In an ELISA, binding on a coated surface is turned into a signal by an enzyme label.

The subject of test [2] is IL-1β. Put plainly: IL-1β ELISA in human corneal endothelial grafts exposed to TNF-α and IFN-γ. Conditions: Ac-YVAD-cmk 30 ng/ml, TNF-α 100 ng/ml + IFN-γ 100 ng/ml, 48 hours; vs exposed grafts. In kind it is cell-based. The protocol: as §1, §2
In test [3] the test system is caspase-1. Put plainly: Caspase-1 immunofluorescence in corneal endothelial grafts exposed to TNF-α and IFN-γ. In kind it is cell-based, human. Conditions: Ac-YVAD-cmk 30 ng/ml, TNF-α 100 ng/ml + IFN-γ 100 ng/ml, 48 hours. The protocol:
as §1
(§3) Endothelial grafts were fixed with 4% paraformaldehyde for 10 minutes at room temperature and washed with PBS. For immunofluorescence staining, samples were permeabilized with 0.3% Triton X-100 in PBS for 15 minutes and blocked with Image-iT FX signal enhancer (Invitrogen ThermoFisher Scientific; Carlsbad, CA, USA) for 30 minutes at room temperature. Isotype-matched nonspecific IgG antibodies were used as controls. […] Stained samples were examined using an inverted fluorescence microscope (BZ-X800 Analyzer, KEYENCE, Osaka, Japan). Images were analyzed using BZ-X-Analyzer software (KEYENCE, Osaka, Japan).

Test [4] concerns GSDM-D. Put plainly: GSDM-D immunofluorescence in corneal endothelial grafts exposed to TNF-α and IFN-γ. Conditions: Ac-YVAD-cmk, TNF-α 100 ng/ml + IFN-γ 100 ng/ml, 48 hours. In kind it is cell-based, human. The protocol:
as §1, §3

The subject of test [5] is human CEC. The test is described as follows: Lactate dehydrogenase (LDH) release assay in corneal endothelial grafts exposed to TNF-α and IFN-γ. In kind it is cell-based. To be noted: supernatant of grafts exposed to TNF-α and IFN-γ, Ac-YVAD-cmk 30 ng/ml, 48 hours; p<0.05. The method, then:
as §1
Cytotoxicity of CEC after TNF-α, IFN-γ treatment was assessed by LDH release assay. LDH release assay was measure using a CytoTox 96® Non-Radioactive Cytotoxicity Assay kit (Promega, Madison, WI, USA) performed according to the manufacturer's instructions as described in^35. The absorbance was measured using a microplate reader (SpectraMax iD3, Molecular Device, San Jose, CA, USA) with excitation and emission wavelengths set at 490 nm.

Test [6] concerns human CEC. Put plainly: Intracellular ROS detection (DCF-DA) in corneal endothelial grafts exposed to TNF-α and IFN-γ. In kind it is cell-based. To be noted: Ac-YVAD-cmk 30 ng/ml, 48 hours, p<0.001. The method, then: as §1
Measurement of intracellular ROS levels was performed using a 2,7-dichlorofluorescein diacetate (DCF-DA) Cellular Reactive Oxygen Species Detection Assay Kit (Abcam, Cambridge, UK) according to the manufacturer's instructions as described in^36. Endothelial grafts were incubated with 10 μM DCF-DA at 37° C. for 45 min. Then, ROS level was determined by measuring the fluorescence intensity using a microplate reader (SpectraMax iD3, Molecular Device, San Jose, CA, USA) with excitation and emission wavelengths set at 485 and 535 nm, respectively. Tert-butyl hydrogen peroxide (TBHP) was used as the positive control. […]

The test system of test [7] is caspase-1. The test is described as follows: siRNA inflammasome inhibitor in vitro assay: caspase-1 SimpleStep ELISA in HCEC-B4G12 cells. In kind it is cell-based, human. To be noted: HCEC-B4G12, YVAD 30 ng/ml, TNFα and INFγ, 72 hours; vs positive control cells treated only with TNFα and INFγ. The protocol: HCEC-B4G12 (Human Corneal Endothelial Cell Line) cells were obtained from Leibniz Institute DSMZ and maintained in Endothelial SFM supplemented with FGF 10 ng/ml in a humidified incubator under an atmosphere of 5% CO2/95% air at 37° C. For transfection, cells were seeded in 12 well culture plates until cultures reached 95-100% confluence. The cells were then transfected with 1 μM ASC siRNAs using siPORT NeoFX Transfection Agent (Invitrogen) following the manufacturer protocol.
Transfection efficiency was estimated by assessing the amount of Block-it Alexa Fluor green fluorescent oligonucleotide (Invitrogen) present inside cells in control cultures 24 and 72 hours after transfection. […] Following the 72 hours treated endothelial cells were placed on 150 μL of lysis buffer with protease inhibitor cocktail (Sigma), and caspase-1 levels were measured by SimpleStep ELISA™ kit (Abcam; Cambridge, UK) according to the manufacturer's instructions. Caspase-1 protein levels were determined by measuring the fluorescence intensity using a microplate reader (SpectraMax iD3, Molecular Device, San Jose, CA, USA) with excitation and emission wavelengths set at 485 and 535 nm, respectively. […]
Caspase-1 levels were analyzed by SimpleStep ELISA after 72 hours of treatment with either YVAD (30 ng/ml) or ASC siRNA (1 μM) transfection, both sets of cells underwent inflammation induction with TNFα and INFγ. […]

Consider Ac-YVAD-cmk, for which the “caspase-1 levels (ELISA)” value in test [1] is listed as “significantly lower levels of caspase-1”. In addition, the “IL-1β levels (ELISA)” value in test [2] is recorded as “did not show significantly lower levels of IL-1β”. The “caspase-1 expression (immunofluorescence)” value in test [3] is given as “lower expression of caspase-1”. Further, the “intracellular (cytoplasmic) immunoreactivity of GSDM-D” value in test [4] is “inhibited”. Moreover, the “LDH levels (LDH release, cell death)” value in test [5] is reported as “significantly downregulated”. In test [6], the ROS levels entry is “significantly downregulated”. Also, in test [7], the “decrease of caspase-1 levels” value is “about 41%”.
